# Reference: patent US4863951A, “Pharmacologically active amino-5,6,7,8-tetrahydronaphtho [2,3-B] furan compounds” (ADIR Et Cie, priority 1987, dated 1989)
# Structures can show the parent of a compound that is named as a salt. Where two headings read alike, the source gives them in different places.
# Assays:
# [1] = test system: apomorphine-induced rearing-up; assay: Antagonism of apomorphine-induced rearing-up behavior in mice; type: in vivo; conditions: Mus musculus, apomorphine 0.75 mg.kg^-1 s.c.
# In short: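 Mice given compound i.p. (doses from 2.5 mg.kg^-1) or orally at 20 mg.kg^-1, then challenged with apomorphine 0.75 mg.kg^-1 s.c.; antagonism of rearing-up behavior scored per Protais et al., significance at p<0.05.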
# [2] = test system: apomorphine-induced stereotypy; assay: Antagonism of apomorphine-induced stereotypy in rats; type: in vivo; conditions: Rattus norvegicus, 0.5 h, apomorphine 1.5 mg.kg^-1 i.p., 30 minutes
# In short: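 Rats received apomorphine or amphetamine i.p. at 1.5 mg.kg^-1, and stereotyped movements were scored on the Quinton–Halliwell scale. Values are % inhibition (−) or potentiation (+) of stereotypy score, measured at 30 minutes for apomorphine and 3 hours for amphetamine.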
# [3] = test system: amphetamine-induced stereotypy; assay: Antagonism of amphetamine-induced stereotypy in rats; type: in vivo; conditions: 3 hours
# Protocol: The inhibitory activity of the compounds of the invention with respect to apomorphine- or amphetamine-induced stereotypy in rats was assessed using the scale of scoring of stereotyped movements described by Quinton R. M. and Halliwell G. in Nature (1963), 200, p. 178-179.
# Apomorphine or amphetamine was administered to the animals intraperitoneally at a dose of 1.5 mg.kg^-1. The percentage inhibition (-) or potentiation (+) of the stereotypy score (% ISS) shown in Tables IV and V for apomorphine corresponds to a measurement time of 30 minutes. In contrast, the percentage inhibition of the stereotypy score shown in Table VI for amphetamine corresponds to a measurement time of 3 hours.
# (s=significant difference, p<0.05).
# [4] = test system: apomorphine-induced hypothermia; assay: Antagonism with respect to apomorphine-induced hypothermia in mice; type: in vivo; conditions: Mus musculus, 2 h, apomorphine 1 mg.kg^-1 s.c., after 2 hours
# Protocol: Testing for an antagonism with respect to apomorphine-induced hypothermia in mice was performed according to the method described by CHERMAT R. and PONCELET M. in J. Pharmac. (1983), 14, No. 1, p. 93-97. The dose of apomorphine administered subcutaneously was 1 mg.kg^-1. Tables VII and VIII show the percentage antagonism of the hypothermia observed after 2 hours.
# [5] = test system: isolation-induced aggression; assay: Antiaggressive effects: isolation-induced aggression in mice; type: in vivo; conditions: isolated mice, i.p.
# In short: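 Two paradigms: inhibition of aggressive behaviour in previously isolated mice, and in isolated, bulbectomized rats. Significance set at p<0.05.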
# [6] = test system: aggression of isolated, bulbectomized rats; assay: Antiaggressive effects: aggression of isolated, bulbectomized rats; type: in vivo; conditions: i.p.
# Description: The antiaggressive effects of the compounds of the invention were investigated by two methods, one of them testing for an inhibition of aggressive behavior in peviously isolated mice (Yen C. Y., Stanger A. L., and Millman N, Arch. Int. Pharmacodyn. Therap. (1959), 123, p. 179-185), and the other in isolated and bulbectomized rats (Garattini S. and Sigg E. B. "Aggressive Behaviour" p. 47-55 Ed. Excerpta Medica Found., Amsterdam, 1969).
# (Tables IX and X, s=significant, p<0.05).
# [7] = test system: reserpine-induced hypothermia; assay: Antagonism of reserpine-induced hypothermia; type: in vivo, Swiss CD male mice; conditions: mice, reserpine 2.5 mg.kg^-1 i.p.
# In short: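 Male Swiss CD mice (27-28 g, n=10/group) given reserpine 2.5 mg.kg^-1 i.p., then test compound i.p. 3 h later. Rectal temperature taken 1 and 2 h after compound dosing and compared with each animal's temperature just before compound administration.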
# [8] = test system: ponto-geniculo-occipital (P.G.O.) waves induced by Ro4-1284; assay: Antagonism of the ponto-geniculo-occipital (P.G.O.) waves induced by Ro4-1284; type: in vivo; conditions: Felis catus, iv, cats, i.v., read-out: ED50 (effective dose inhibiting by 50% the number of P.G.O. waves)
# Protocol: The antidepressant effects of the compounds of the invention were investigated by assessing the antagonism of reserpine-induced hypothermia and the antagonism of the ponto-geniculo-occipital waves induced by the compound Ro4-1284 in cats.
# This study was performed according to the method of Ruch-Monachon M. A., Jalfre M. and Haefely W. described in Arch. Int. Pharm. Therap., (1976), 219, No. 2, p. 251-346, and it enabled the effective dose (i.v) inhibiting by 50% (ED50) the number of P.G.O waves to be assessed.
# [9] = test system: interoceptive stimulus of apomorphine; assay: Drug discrimination in rats (generalization with apomorphine); type: in vivo; conditions: 30 minutes before test
# Protocol: Rats were trained to discriminate between the effect of the interoceptive stimulus of apomorphine (0.2 mg.kg^-1 i.p.) and that of physiological saline, according to a principle described by Colpaert F. in "Drug discrimination application in C.N.S. Pharmacology" Ed. Elsevier Biomedical 1982, Amsterdam. […]
# Under the experimental conditions employed, the behavior shown by the animals coincides with that noted in the case of administration of apomorphine.
smiles,measurement,setting,value
"NC1CCc2cc3c(cc2C1)OCC3 (racemic) [Example 2, di-7-Amino-2,3,5,6,7,8-hexahydronaphtho[2,3-b]furan hydrochloride]",change in vivo at 5 mg/kg,"[1]; ip, read-out: % inhibition of rearing-up, mice, i.p. dose 5 mg.kg^-1",-56%
same,change in vivo at 10 mg/kg,"[1]; ip, read-out: % inhibition of rearing-up, mice, i.p. dose 10 mg.kg^-1",-58%
same,change in vivo at 20 mg/kg,"[1]; ip, read-out: % inhibition of rearing-up, mice, i.p. dose 20 mg.kg^-1",-91%
same,change in vivo at 40 mg/kg,"[1]; ip, read-out: % inhibition of rearing-up, mice, i.p. dose 40 mg.kg^-1",-100%
same,change in vivo at 10 mg/kg,"[1]; po, read-out: % inhibition of rearing-up, mice, p.o. dose 10 mg.kg^-1",-77%
same,change in vivo at 20 mg/kg,"[1]; po, read-out: % inhibition of rearing-up, mice, p.o. dose 20 mg.kg^-1",-100%
same,change in vivo at 5 mg/kg,"[2]; ip, read-out: % ISS (inhibition (-) or potentiation (+) of the stereotypy score), rats, i.p. dose 5 mg.kg^-1",-16%
same,change in vivo at 10 mg/kg,"[2]; ip, read-out: % ISS (inhibition (-) or potentiation (+) of the stereotypy score), rats, i.p. dose 10 mg.kg^-1",-62%
same,change in vivo at 20 mg/kg,"[2]; ip, read-out: % ISS (inhibition (-) or potentiation (+) of the stereotypy score), rats, i.p. dose 20 mg.kg^-1",-48%
same,change in vivo at 10 mg/kg,"[2]; po, read-out: % ISS (inhibition (-) or potentiation (+) of the stereotypy score), rats, p.o. dose 10 mg.kg^-1",-55%
same,change in vivo at 20 mg/kg,"[2]; po, read-out: % ISS (inhibition (-) or potentiation (+) of the stereotypy score), rats, p.o. dose 20 mg.kg^-1",-55%
same,% ISS (inhibition (-) or potentiation (+) of the stereotypy score),"[3]; i.p. dose 5 mg.kg^-1, amphetamine 1.5 mg.kg^-1 i.p.",+32%
same,% ISS (inhibition (-) or potentiation (+) of the stereotypy score),"[3]; i.p. dose 10 mg.kg^-1, amphetamine 1.5 mg.kg^-1 i.p.",+39%
same,change in vivo at 1 mg/kg,"[4]; ip, read-out: % antagonism of hypothermia, mice, i.p. dose 1",-11%
same,change in vivo at 5 mg/kg,"[4]; ip, read-out: % antagonism of hypothermia, mice, i.p. dose 5",-57%
same,change in vivo at 10 mg/kg,"[4]; ip, read-out: % antagonism of hypothermia, mice, i.p. dose 10",-54%
same,change in vivo at 20 mg/kg,"[4]; ip, read-out: % antagonism of hypothermia, mice, i.p. dose 20",-80%
same,change in vivo at 2.5 mg/kg,"[4]; po, read-out: % antagonism of hypothermia, mice, p.o. dose 2.5",-35%
same,change in vivo at 5 mg/kg,"[4]; po, read-out: % antagonism of hypothermia, mice, p.o. dose 5",-59%
same,change in vivo at 10 mg/kg,"[4]; po, read-out: % antagonism of hypothermia, mice, p.o. dose 10",-70%
same,change in vivo at 20 mg/kg,"[4]; po, read-out: % antagonism of hypothermia, mice, p.o. dose 20",-86%
same,% of pairs of mice showing no sign of fighting,[5]; 2.5 mg.kg^-1,40%
same,% of pairs of mice showing no sign of fighting,[5]; 5 mg.kg^-1,70%
same,% of pairs of mice showing no sign of fighting,[5]; 10 mg.kg^-1,100%
same,% of pairs of mice showing no sign of fighting,[5]; 20 mg.kg^-1,100%
same,% of rats rendered non-aggressive,[6]; 1.25 mg.kg^-1,17%
same,% of rats rendered non-aggressive,[6]; 2.5 mg.kg^-1,50%
same,% of rats rendered non-aggressive,[6]; 5 mg.kg^-1,73%
same,% of rats rendered non-aggressive,[6]; 10 mg.kg^-1,17%
same,% inhibition of hypothermia,[7]; 2.5 mg.kg^-1 i.p.,-62%
same,% inhibition of hypothermia,[7]; 5 mg.kg^-1 i.p.,-27%
same,% inhibition of hypothermia,[7]; 10 mg.kg^-1 i.p.,-32%
same,% inhibition of hypothermia,[7]; 20 mg.kg^-1 i.p.,-47%
same,ED50,[8],0.146 mg/kg
same,% of animals which generalize,[9]; 1.0 mg.kg^-1 i.p.,20%
same,Number of animals showing the effect of generalization with apomorphine,[9]; 1.0 mg.kg^-1 i.p.,2/10
same,% of animals which generalize,[9]; 2.5 mg.kg^-1 i.p.,77%
same,Number of animals showing the effect of generalization with apomorphine,[9]; 2.5 mg.kg^-1 i.p.,7/9
same,% of animals which generalize,[9]; 5.0 mg.kg^-1 i.p.,50%
same,Number of animals showing the effect of generalization with apomorphine,[9]; 5.0 mg.kg^-1 i.p.,2/4
